What was measured:
M1619 melanoma cells = assay: MTT proliferation assay, M1619 melanoma; format: cell-based, human; details: for antiproliferative activity of gold complexed with disulfiram: M1619, compared with DS 160 nM
Description: (§1) Human malignant cell lines were obtained from American Type Tissue Culture Collection (Rockville, Md.). Melanoma cells lines CRL 1585 and 1619 were cultured in RPMI 1640 (GIBCO-BRL, Life Technologies, Grand Island, N.Y.) with 10% FBS and passed with nonenzymatic Cell Dissociation Solution® (Sigma). The prostate adenocarcinoma cell line CRL 1435 (PC-3) was also cultured in RPMI 1640 with 10% FBS but passed with 0.05% trypsin and 0.53 mM EDTA. The squamous lung carcinoma NCI-H520 and the adenosquamous lung carcinoma NCI-H596 cell lines were grown in RPMI 1640 supplemented with 10% FBS, 10 mM HEPES and 1.0 mM sodium pyruvate and passed with trypsin/EDTA. The small cell lung carcinoma NCI-H82 was cultured as a suspension in RPMI 1640 with 10% FBS. All of the above were grown in a 37° C. humidified environment containing 5% CO2/air. The breast carcinoma cell line MDA-MB-453 was grown in a 37° C. humidified environment with free gas exchange with atmospheric air using Leibovitz's L-15 medium with 2 mM L-glutamine and 10% FBS and was passed with trypsin/EDTA.
The effect of disulfiram (0.15 to 5.0 μM), diethyldithiocarbamate (DDC, 1.0 μM) or PDTC (0.625 to 5.0 μM) on proliferation of malignant cell lines was studied in cultures stimulated with 10% FBS. Cell numbers were quantitated 24-72 hours later. In some experiments disulfiram or PDTC were added immediately after cells were plated. In other experiments, cells were plated and allowed to grow for 24-72 hours before fresh media with disulfiram or PDTC was added, and cell numbers were assayed 24-72 hours later.
Finally, a number of dithiocarbamate effects on cells have been attributed to increasing the intracellular levels of copper ions. To further probe the role of copper in mediating cytotoxicity from disulfiram, cells were cultured with or without addition of the impermeate Cu^2+ chelator bathocuprioinedisulfonic acid (BCPS, 100 μM) added to medium to sequester Cu^2+ in the extracellular compartment. Cells were also treated 12 hours with various concentration of disulfiram (0.625 to 5.0 μM) and intracellular copper levels were measured as outlined below.
Proliferation of cultured cells was quantitated using a previously reported calorimetric method based upon metabolic reduction of the soluble yellow tetrazolium dye 3-[4,5-dimethylthiazol]-2yl-2,5-diphenyl tetrazolium bromide (MTT) to its insoluble purple formazan by the action of mitochondrial succinyl dehydrogenase (See, e.g., S. J. Hirst, et al., “Quantifying proliferation of cultured human and rabbit airway smooth muscle in response to serum and platelet derived growth factor,” Am. J. Respir. Cell Mol. Biol. 7:574-581 (1992); R. Dashtaki, et al. R., supra; S. S. Brar, et al., “Requirement for reactive oxygen species in serum-induced and platelet-derived growth factor-induced growth of airway smooth muscle,” J. Biol. Chem. 274:20017-20026 (1999)). This assay empirically distinguishes between dead and living cells. For proliferation studies, cells were seeded into 24-well uncoated plastic plates (Costar) at 50,000 cells per well and cultured with respective media and mitogens.

tumor cell lines = assay: Proliferation of tumor cell lines with redox, NO synthase or cyclooxygenase agents (cell line not given); format: cell-based, human
Description: Potential redox effects of disulfiram were studied in three sets of experiments. The importance of cellular glutathione (GSH) in mediating or modulating thiocarbamate toxicity was studied by measuring levels of intracellular GSH after treatment with disulfiram. […] Also, to assess whether a nonspecific antioxidant effect of disulfiram or PDTC might account for cellular growth inhibition, we studied the effect of the potent lipophilic antioxidant probucol (1.0 to 1,000 μM) on proliferation of malignant cell lines. […] To explore the role of cyclooxygenase inhibition on tumor cell growth, cells were cultured with or without disulfiram in the presence or absence of the cyclooxygenase-1 (COX1) and cyclooxygenase-2 (COX2) inhibitors indomethacin (5μg/ml) or sodium salicylate (1 mM). To probe whether disulfiram might be inducing growth retardation by interruption or stimulation of NO production, proliferation was studied with and without disulfiram in the presence and absence of the nitric oxide […] inhibitor Nω-nitro-L-arginine added to growth medium (100 μM). […] J. Respir. Cell Mol. Biol. 7:574-581 (1992); […], et al. R., supra; S. S. Brar, et al., “Requirement for reactive oxygen species in serum-induced and platelet-derived growth factor-induced growth of airway smooth muscle,” J. Biol. Chem. 274:20017-20026 (1999)). This assay empirically distinguishes between dead and living cells. For proliferation studies, cells were seeded into 24-well uncoated plastic plates (Costar) at 50,000 cells per well and cultured with respective media and mitogens. […] MTT-containing medium was removed, 0.5 ml dimethylsulfoxide (DMSO) was added to each well, and the absorbance of the solubilized purple formazan dye was measured at 540 nm. A total of 4-6 wells were studied at each treatment condition.

Melanoma M1585 = assay: MTT proliferation assay, M1585 melanoma; format: cell-based; details: Homo sapiens; M1585 melanoma cells; read-out: 50% inhibitor concentration (IC50)
Description: as §1
The effect of disulfiram (0.15 to 5.0 μM), diethyldithiocarbamate (DDC, 1.0 μM) or PDTC (0.625 to 5.0 μM) on proliferation of malignant cell lines was studied in cultures stimulated with 10% FBS. Cell numbers were quantitated 24-72 hours later. In some experiments disulfiram or PDTC were added immediately after cells were plated. In other experiments, cells were plated and allowed to grow for 24-72 hours before fresh media with disulfiram or PDTC was added, and cell numbers were assayed 24-72 hours later. Synergy was studied between disulfiram and N,N′-bis(2-chloroethyl-N-nitrosourea (carmustine or BCNU, 1.0 to 1,000 μM) or cisplatin (0.1 to 100 μg/ml) added to medium. The effect of metals on disulfiram was studied with 0.2 to 10 μM copper (provided as CuSO4), zinc (as ZnCl2), silver (as silver lactate) or gold (as HAuCl4.3H2O) ions added to growth medium. No pH changes occurred with addition of metal salts to culture medium. To provide a biologically relevant source of copper, in some experiments medium was supplemented with human ceruloplasmin at doses replicating low and high normal adult serum concentrations (250 and 500 μg/ml).
Proliferation of cultured cells was quantitated using a previously reported calorimetric method based upon metabolic reduction of the soluble yellow tetrazolium dye 3-[4,5-dimethylthiazol]-2yl-2,5-diphenyl tetrazolium bromide (MTT) to its insoluble purple formazan by the action of mitochondrial succinyl dehydrogenase (See, e.g., S. J. Hirst, et al., “Quantifying proliferation of cultured human and rabbit airway smooth muscle in response to serum and platelet derived growth factor,” Am. J. Respir. Cell Mol. Biol. 7:574-581 (1992); R. Dashtaki, et al. R., supra; S. S. Brar, et al., “Requirement for reactive oxygen species in serum-induced and platelet-derived growth factor-induced growth of airway smooth muscle,” J. Biol. Chem. 274:20017-20026 (1999)). This assay empirically distinguishes between dead and living cells. For proliferation studies, cells were seeded into 24-well uncoated plastic plates (Costar) at 50,000 cells per well and cultured with respective media and mitogens. After 24-96 hours, medium was removed, cells were washed twice with 1 ml of sterile Dulbecco's modified phosphate buffered saline without Ca^2+ or Mg^2+ (DPBS), the medium was replaced with 1 ml/well fresh medium containing 100 μg/ml MTT, and plates were incubated an additional hour. MTT-containing medium was removed, 0.5 ml dimethylsulfoxide (DMSO) was added to each well, and the absorbance of the solubilized purple formazan dye was measured at 540 nm. A total of 4-6 wells were studied at each treatment condition. Preliminary studies were performed with 50-200 μg/ml MTT incubated for 15 minutes to 3 hours to determine the optimum concentration and incubation time at which the rate of conversion was linear and proportional to the number of cells present. […]

Cc1cc(-c2ccc(S(=O)(=O)O)cc2)c2ccc3c(-c4ccc(S(=O)(=O)O)cc4)cc(C)nc3c2n1 [BCPS, bathocuproinedisulfonic acid]
effect of Cu2+ chelator on growth inhibition from disulfiram (M1619 melanoma cells; 1.25 μM disulfiram with 50 or 100 μM BCPS, 48 hr): greatly reduces growth inhibition

O=NN(CCCl)C(=O)NCCCl [Carmustine]
A540 of MTT Formazan (M1619 melanoma cells; carmustine 1 μM + DMSO vehicle, 24 hours): 0.197 ± 0.004
A540 of MTT Formazan (M1619 melanoma cells; carmustine 10 μM + DMSO vehicle, 24 hours): 0.152 ± 0.011
A540 of MTT Formazan (M1619 melanoma cells; carmustine 100 μM + DMSO vehicle, 24 hours): 0.020 ± 0.002
A540 of MTT Formazan (M1619 melanoma cells; carmustine 1,000 μM + DMSO vehicle, 24 hours): 0.003 ± 0.000

N.N.[Cl][Pt][Cl] [Cisplatin, cisplatin]
A540 of MTT Formazan (M1619 melanoma cells; cisplatin 1 ng/ml + DMSO vehicle, added after 48 hours, additional 24 hours): 1.739 ± 0.041
A540 of MTT Formazan (M1619 melanoma cells; cisplatin 10 ng/ml + DMSO vehicle, added after 48 hours, additional 24 hours): 1.447 ± 0.047
A540 of MTT Formazan (M1619 melanoma cells; cisplatin 100 ng/ml + DMSO vehicle, added after 48 hours, additional 24 hours): 1.372 ± 0.052
A540 of MTT Formazan (M1619 melanoma cells; cisplatin 1,000 ng/ml + DMSO vehicle, added after 48 hours, additional 24 hours): 1.381 ± 0.098

N=C(NCCC[C@H](N)C(=O)O)N[N+](=O)[O-] [LNAME, Nω-nitro-L-arginine]
increase of cellular growth (tumor cell lines; LNAME alone (100 μM), vs DMSO vehicle control): 23.7±2.3%

CCN(CC)C(=S)[S-].O.O.O.[Na+] [NaDDC, sodium diethyldithiocarbamate trihydrate]
antiproliferative activity of the thiolate with DTT in medium (M1619 melanoma cells; NaDDC 1 μM plus DTT 100 μM, 48 hours): reduced by low concentrations of DTT

S=C(S)N1CCCC1 [PDTC, Pyrrolidinedithiocarbamate]
IC50 (Melanoma M1585): ~1.25 µM

CC(C)(Sc1cc(C(C)(C)C)c(O)c(C(C)(C)C)c1)Sc1cc(C(C)(C)C)c(O)c(C(C)(C)C)c1 [probucol]
growth of tumor cell lines (tumor cell lines; probucol 1.0 to 1,000 μM, data not shown): did not significantly inhibit growth

[Cl-].[Cl-].[Zn+2] [zinc chloride]
effect of zinc on antiproliferative potential of disulfiram (M1619 melanoma cells; ZnCl2 with 0.625 μM disulfiram, grown 24 hours, additional 24 hr): substantially enhanced

dichloro(diethylthiocarbamyl)gold (II) [AuDS]
antiproliferative activity of gold complexed with disulfiram (M1619 melanoma cells; 48 hr): enhanced antiproliferative activity
antiproliferative activity of gold complexed with disulfiram (M1619 melanoma cells; 48 hr, listed as complex of gold with disulfiram): antiproliferative at nM concentrations

B1: ceruloplasmin: 132-kD glycoprotein carrying 7 copper atoms, the major copper-carrying protein in human plasma (protein, UniProt P00450 20-1065, looked up)
Ceruloplasmin: KEKHYYIGIIETTWDYASDHGEKKLISVDTEHSNIYLQNGPDRIGRLYKKALYLQYTDETFRTTIEKPVWLGFLGPIIKAETGDKVYVHLKNLASRPYTFHSHGITYYKEHEGAIYPDNTTDFQRADDKVYPGEQYTYMLLATEEQSPGEGDGNCVTRIYHSHIDAPKDIASGLIGPLIICKKDSLDKEKEKHIDREFVVMFSVVDENFSWYLEDNIKTYCSEPEKVDKDNEDFQESNRMYSVNGYTFGSLPGLSMCAEDRVKWYLFGMGNEVDVHAAFFHGQALTNKNYRIDTINLFPATLFDAYMVAQNPGEWMLSCQNLNHLKAGLQAFFQVQECNKSSSKDNIRGKHVRHYYIAAEEIIWNYAPSGIDIFTKENLTAPGSDSAVFFEQGTTRIGGSYKKLVYREYTDASFTNRKERGPEEEHLGILGPVIWAEVGDTIRVTFHNKGAYPLSIEPIGVRFNKNNEGTYYSPNYNPQSRSVPPSASHVAPTETFTYEWTVPKEVGPTNADPVCLAKMYYSAVEPTKDIFTGLIGPMKICKKGSLHANGRQKDVDKEFYLFPTVFDENESLLLEDNIRMFTTAPDQVDKEDEDFQESNKMHSMNGFMYGNQPGLTMCKGDSVVWYLFSAGNEADVHGIYFSGNTYLWRGERRDTANLFPQTSLTLHMWPDTEGTFNVECLTTDHYTGGMKQKYTVNQCRRQSEDSTFYLGERTYYIAAVEVEWDYSPQREWEKELHHLQEQNVSNAFLDKGEFYIGSKYKKVVYRQYTDSTFRVPVERKAEEEHLGILGPQLHADVGDKVKIIFKNMATRPYSIHAHGVQTESSTVTPTLPGETLTYVWKIPERSGAGTEDSACIPWAYYSTVDQVKDLYSGLIGPLIVCRRPYLKVFNPRRKLEFALLFLVFDENESWYLDDNIKTYSDHPEKVNKDDEEFIESNKMHAINGRMFGNLQGLTMHVGDEVNWYLMGMGNEIDLHTVHFHGHSFQYKHRGVYSSDVFDIFPGTYQTLEMFPRTPGIWLLHCHVTDHIHAGMETTYTVLQNEDTKSG
effect of ceruloplasmin on antiproliferative activity of disulfiram (M1619 melanoma cells; ceruloplasmin 500 μg/ml with disulfiram, 24 hours): enhance the antiproliferative activity of disulfiram
